From patent US12691101B2, “Compound and method for preventing or treating of respiratory diseases comprising the same as an active ingredient” (YONSEI UNIVERSITY, UNIVERSITY - INDUSTRY FOUNDATION (UIF), priority 2019, dated 2026)

Legend:
CHO-K1 cells = assay: Cell viability, MTS colorimetric analysis, CHO-K1; format: cell-based, Chinese hamster; details: 24 hours, up to 30 μM
Description: (A) Pendrin-mediated Cl^−/I^− exchange activity (mean±S.E., n=5). The indicated concentration of F56 was pretreated for 10 minutes. (B, C) Representative tracing of intracellular pH. The application of Cl^− free solution induced intracellular alkalization through pendrin-mediated Cl^−/HCO3^− and Cl^−/OH^− exchange activity. The indicated concentration of F56 was pretreated for 10 minutes. (D-F) The pendrin-mediated Cl^−/I^− exchange activity was measured in CHO-K1 cells expressing human pendrin. The indicated concentration of F56, PDSinh-A01 and PDSinh-C01 was pretreated for 10 minutes. (G) Summary of dose-response of F56, PDSinh-A01 and PDSinh-C01 (mean±S.E., n=3). (H, I) Effect of F56, PDSinh-A01 and PDSinh-C01 on the cell viability in NIH3T3 (H) and CHO-K1 (I) cells. The cells were treated with F56, PDSinh-A01 and PDSinh-C01 for 24 hours. The cell viability was measured by MTS colorimetric analysis (mean±S.E., n=3). NTC, non-transfected cells.
The cells were treated with F10 for 24 hours. The cell viability was determined by MTS colorimetric analysis (mean±S.E., n=3).

[1] = test system: OVA-sensitized and challenged mice; assay: OVA-induced allergic asthma mouse model; format: in vivo; details: for OVA-induced airway sensitivity / airway resistance: pretreatment, F56 10 mg/kg i.p. 12 hours before OVA challenge, methacholine
Description: (A) Protocol of induction of allergic airway inflammation solution after allergen antigen challenge in a wild-type mouse and time course. F56 (10 mg/kg three times/day) was applied after tertiary OVA challenge. (B) Airway reactivity measured by whole body plethysmography in an OVA-induced asthma model. Penh was measured in response to an increased dose of methacholine (mean±S.E., n=4). (C) Representative PAS staining of airway tissue. Size bar, 100 μm. (D) Summary of PAS positive cells (mean±S.E., n=4). * P<0.05.
Experiments were performed using 8-week-old BALB/c mice. The experimental protocol was approved by the Animal Ethics Committee of Yonsei University. Mice were housed and maintained in an animal facility under standard laboratory conditions [12/12 hours light/dark cycle, controlled temperature (21±2° C.) and humidity (55±5%) and access to any food and water]. All the experiments were performed according to the guidelines of Yonsei University Animal Research Committee. Mice were divided to 3 groups, vehicle group (vehicle-treated PBS-sensitized and challenged mice), OVA group (vehicle-treated OVA-sensitized and challenged mice) and OVA+F56 group (F56-treated OVA-sensitized and challenged mice). Age and sex-matched 8-week-old mice were sensitized by i.p. injection of OVA (Sigma-Aldrich) on Days 0 and 14. The sensitization emulsion was composed of 50 μg OVA and 2 mg aluminum potassium sulfate in 200 μL saline solution. On Days 21, 22 and 23, sensitized mice were lightly anesthetized by isoflurane inhalation and challenged with 100 μg OVA in 30 μL saline solution administered intranasally. The control mice were treated in the same manner as PBS. F56 (10 mg/kg) was administered by i.p injection 12 hours before i.n. OVA challenge, respectively.
The airway response for methacol (MCh) 24 hours after the last OVA exposure was measured using FlexiVent system (Scireq, Montreal, QC, Canada). Mice were anesthetized by intraperitoneal injection of the mixture of Zoletil (30 mg/kg; Virbac Laboratories, Carros, France) and Rompun (10 mg/kg; Bayer, Leverkusen, Germany), and then tracheostomy was performed to connect to FlexiVent. The base line airway resistance was measured after spraying saline solution for 10 seconds using Aeroneb ultrasonic nebulizer (SCIREQ). After measuring the base line, the mice were exposed to nebulized methacholine at an increased concentration (0, 1.56, 3.13, 6.25, 12.5 and 25 mg/mL). In addition, using whole body plethysmography (Buxco, Miami, FL, USA), the bronchial airway responsibility was measured. As a major index of the airway responsibility, enhanced pause (Penh) was used. Under the base line condition, Penh was measured for 2 minutes. Then, the mice were exposed to inhalation of PBS or MCh (25 mg/mL) for 2 minutes. The Penh result was expressed as an absolute value.
After evaluation of the airway responsiveness, BAL was performed. The cells were pelleted by centrifugation and resuspended in PBS to obtain the number of cells. Cytospin was prepared with a cell centrifuge (Shandon Cytospin 4 cell centrifuge; Thermo Scientific, MA, USA, USA) and stained with Diff-Quik Stain Set (Dade Behring, USA, DE, USA) to evaluate inflammation.
For evaluation of airway inflammation, left lung was fixed in 4% paraformaldehyde overnight and embedded in paraffin. A histological slide was prepared from 5-μm section, and stained with hematoxylin and eosin (H&E). The inflammation score showing the severity of bronchial inflammation was evaluated by 3 blind observers using a method reported conventionally. To evaluate goblet cell hyperplasia, the section was stained with periodic acid-Schiff (PAS) using PAS staining kit (Sigma-Aldrich), according to the manufacturer's protocol. The nasal cavity mucous membrane and HNE cells collected on the transwell were softly washed with PBS and fixed with 4% paraformaldehyde. […]

[2] = established model of allergic asthma, 10 mg/kg three times/day after tertiary OVA challenge

| SMILES | cytotoxicity in CHO-K1 cells (CHO-K1 cells) | serum level of OVA-specific IgG ([1]; OVA-challenged mice) | goblet cells, inflammation infiltration and epithelial thickness in central airway (histology) ([1]; OVA-challenged mice, 10 mg/kg i.p.) | average inflammation score ([1]; OVA-challenged mice, versus non-treated group) | number of eosinophils and neutrophils in BALF ([1]; OVA-sensitized mice, 10 mg/kg i.p.) | OVA-induced airway sensitivity [1, 2] | PAS positive cells in the airway epithelium [1, 2] | OVA-induced airway sensitivity / airway resistance [1] |
| --- | --- | --- | --- | --- | --- | --- | --- | --- |
| CC(C)(C)c1ccc(C2=NC(=Cc3cccs3)C(=O)O2)cc1 [F56, 2-(4-(tert-butyl)phenyl)-4-(thiophen-2-ylmethylene)oxazol-5(4H)-one] | did not show cytotoxicity up to 30 μM | not changed | weekended | significantly lower | reduced | significantly reduced | significantly reduced | significantly weakened |
| CC(C)(C)c1ccc(C2=NC(=Cc3ccc[nH]3)C(=O)O2)cc1 [F10, 4-((1H-pyrrol-2-yl)methylene)-2-(4-(tert-butyl)phenyl)oxazol-5 (4H)-one] | did not show any cytotoxicity up to 30 μM |  |  |  |  |  |  | reduced the airway resistance |
